From patent publication US11117900B2 (Vertex Pharmaceuticals Incorporated, priority 2012, dated 2021)

What follows are compounds tested on HCT116 colorectal cancer cells (assay: Cisplatin sensitization assay (96 h MTS cell viability)). Settings: Cisplatin sensitization value.
Type: cell-based
How it was run: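 HCT116 cells were dosed simultaneously with compound and cisplatin as a full matrix of 2-fold serial dilutions from 10 μM top final concentration. Incubation was 96 h at 37° C., 5% CO2, followed by 1 h with MTS reagent for the viability read-out. Sensitization values were binned into +++, ++ and + categories.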
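Also: compound concentration needed to lower the IC50 of Cisplatin alone by a set fold.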

SMILES | Cisplatin Sensitization Assay
Nc1nn2cc(F)cnc2c1C(=O)Nc1cncc(F)c1N1CCN(C(=O)C2CNCCO2)CC1 (stereo not shown) [I-N-172, 2-amino-6-fluoro-N-(5-fluoro-4-(4-(morpholine-2-carbonyl)piperazin-1-yl)pyridin-3-yl)pyrazolo[1,5-a]pyrimidine-3-carboxamide] | +++ (Compounds with a Cisplatin sensitization value of <0.02 μM are marked with “+++.”)
CN1CCCCC1C(=O)N1CCN(c2c(F)cncc2NC(=O)c2c(N)nn3cc(F)cnc23)CC1 (stereo not shown) [I-N-173, 2-amino-6-fluoro-N-(5-fluoro-4-(4-(1-methylpiperidine-2-carbonyl)piperazin-1-yl)pyridin-3-yl)pyrazolo[1,5-a]pyrimidine-3-carboxamide] | +++ (Compounds with a Cisplatin sensitization value of <0.02 μM are marked with “+++.”)
CN1CCOC(C(=O)N2CCN(c3c(F)cncc3NC(=O)c3c(N)nn4cc(F)cnc34)CC2)C1 (stereo not shown) [I-N-174, 2-amino-6-fluoro-N-(5-fluoro-4-(4-(4-methylmorpholine-2-carbonyl)piperazin-1-yl)pyridin-3-yl)pyrazolo[1,5-a]pyrimidine-3-carboxamide] | +++ (Compounds with a Cisplatin sensitization value of <0.02 μM are marked with “+++.”)
CN1CCC(S(=O)(=O)N2CCN(c3c(F)cncc3NC(=O)c3c(N)nn4cc(F)cnc34)CC2)CC1 [I-N-175, 2-amino-6-fluoro-N-(5-fluoro-4-(4-((1-methylpiperidin-4-yl)sulfonyl)piperazin-1-yl)pyridin-3-yl)pyrazolo[1,5-a]pyrimidine-3-carboxamide] | +++ (Compounds with a Cisplatin sensitization value of <0.02 μM are marked with “+++.”)
Nc1nn2cc(F)cnc2c1C(=O)Nc1cnccc1N1CCN(S(=O)(=O)C2CC2)CC1 [I-N-176, 2-amino-N-(4-(4-(cyclopropylsulfonyl)piperazin-1-yl)pyridin-3-yl)-6-fluoropyrazolo[1,5-a]pyrimidine-3-carboxamide] | +++ (Compounds with a Cisplatin sensitization value of <0.02 μM are marked with “+++.”)
Nc1nn2cc(F)cnc2c1C(=O)Nc1cnccc1N1CCN(S(=O)(=O)C2CCOCC2)CC1 [I-N-177, 2-amino-6-fluoro-N-(4-(4-((tetrahydro-2H-pyran-4-yl)sulfonyl)piperazin-1-yl)pyridin-3-yl)pyrazolo[1,5-a]pyrimidine-3-carboxamide] | +++ (Compounds with a Cisplatin sensitization value of <0.02 μM are marked with “+++.”)
CS(=O)(=O)N1CCN(c2ccncc2NC(=O)c2c(N)nn3cc(F)cnc23)CC1 [I-N-178, 2-amino-6-fluoro-N-(4-(4-(methylsulfonyl)piperazin-1-yl)pyridin-3-yl)pyrazolo[1,5-a]pyrimidine-3-carboxamide] | +++ (Compounds with a Cisplatin sensitization value of <0.02 μM are marked with “+++.”)
Nc1nn2cc(F)cnc2c1C(=O)Nc1cnccc1N1CCN(S(=O)(=O)C2CCOC2)CC1 (stereo not shown) [I-N-179, 2-amino-6-fluoro-N-(4-(4-((tetrahydrofuran-3-yl)sulfonyl)piperazin-1-yl)pyridin-3-yl)pyrazolo[1,5-a]pyrimidine-3-carboxamide] | +++ (Compounds with a Cisplatin sensitization value of <0.02 μM are marked with “+++.”)
CN1CCC[C@@H]1C(=O)N1CCN(c2c(F)cncc2NC(=O)c2c(N)nn3cc(F)cnc23)CC1 [I-N-181, (R)-2-amino-6-fluoro-N-(5-fluoro-4-(4-(1-methylpyrrolidine-2-carbonyl)piperazin-1-yl)pyridin-3-yl)pyrazolo[1,5-a]pyrimidine-3-carboxamide] | +++ (Compounds with a Cisplatin sensitization value of <0.02 μM are marked with “+++.”)
Nc1nn2cc(F)cnc2c1C(=O)Nc1cncc(F)c1N1CCN2C(=O)CC[C@@H]2C1 [I-N-182, (R)-2-amino-6-fluoro-N-(5-fluoro-4-(6-oxohexahydropyrrolo[1,2-a]pyrazin-2(1H)-yl)pyridin-3-yl)pyrazolo[1,5-a]pyrimidine-3-carboxamide] | ++ (Compounds with a Cisplatin sensitization value >0.02 μM but <0.2 μM are marked with “++.”)
CN1CCOC2(CCN(c3ccncc3NC(=O)c3c(N)nn4cc(F)cnc34)CC2)C1 [I-N-183, 2-amino-6-fluoro-N-(4-(4-methyl-1-oxa-4,9-diazaspiro[5.5]undecan-9-yl)pyridin-3-yl)pyrazolo[1,5-a]pyrimidine-3-carboxamide] | +++ (Compounds with a Cisplatin sensitization value of <0.02 μM are marked with “+++.”)
Nc1nn2cc(F)cnc2c1C(=O)Nc1cncc(F)c1N1CCC(c2nccs2)CC1 [I-N-184, 2-amino-6-fluoro-N-(5-fluoro-4-(4-(thiazol-2-yl)piperidin-1-yl)pyridin-3-yl)pyrazolo[1,5-a]pyrimidine-3-carboxamide] | ++ (Compounds with a Cisplatin sensitization value >0.02 μM but <0.2 μM are marked with “++.”)
CCN1CCCC1C(=O)N1CCN(c2c(F)cncc2NC(=O)c2c(N)nn3cc(F)cnc23)CC1 (stereo not shown) [I-N-185, 2-amino-N-(4-(4-(1-ethylpyrrolidine-2-carbonyl)piperazin-1-yl)-5-fluoropyridin-3-yl)-6-fluoropyrazolo[1,5-a]pyrimidine-3-carboxamide] | ++ (Compounds with a Cisplatin sensitization value >0.02 μM but <0.2 μM are marked with “++.”)
Nc1nn2cc(F)cnc2c1C(=O)Nc1cncc(F)c1N1CCN(C(=O)CN2CCCC2)CC1 [I-N-187, 2-amino-6-fluoro-N-(5-fluoro-4-(4-(2-(pyrrolidin-1-yl)acetyl)piperazin-1-yl)pyridin-3-yl)pyrazolo[1,5-a]pyrimidine-3-carboxamide] | +++ (Compounds with a Cisplatin sensitization value of <0.02 μM are marked with “+++.”)
CN1CCC(S(=O)(=O)N2CCN(c3ccncc3NC(=O)c3c(N)nn4cc(F)cnc34)CC2)CC1 [I-N-188, 2-amino-6-fluoro-N-(4-(4-((1-methylpiperidin-4-yl)sulfonyl)piperazin-1-yl)pyridin-3-yl)pyrazolo[1,5-a]pyrimidine-3-carboxamide] | +++ (Compounds with a Cisplatin sensitization value of <0.02 μM are marked with “+++.”)
Nc1nn2cc(F)cnc2c1C(=O)Nc1cncc(F)c1N1CCC(N2CCOCC2)CC1 [I-N-189, 2-amino-6-fluoro-N-(5-fluoro-4-(4-morpholinopiperidin-1-yl)pyridin-3-yl)pyrazolo[1,5-a]pyrimidine-3-carboxamide] | +++ (Compounds with a Cisplatin sensitization value of <0.02 μM are marked with “+++.”)
CS(=O)(=O)C1CCN(c2ccncc2NC(=O)c2c(N)nn3cc(F)cnc23)CC1 [I-N-190, 2-amino-6-fluoro-N-(4-(4-(methylsulfonyl)piperidin-1-yl)pyridin-3-yl)pyrazolo[1,5-a]pyrimidine-3-carboxamide] | +++ (Compounds with a Cisplatin sensitization value of <0.02 μM are marked with “+++.”)
CN1CCN(C(=O)C2CCN(c3c(F)cncc3NC(=O)c3c(N)nn4cc(F)cnc34)C2)CC1 (stereo not shown) [I-N-191, 2-amino-6-fluoro-N-(5-fluoro-4-(3-(4-methylpiperazine-1-carbonyl)pyrrolidin-1-yl)pyridin-3-yl)pyrazolo[1,5-a]pyrimidine-3-carboxamide] | + (Compounds with a Cisplatin sensitization value >0.2 μM but <5 μM are marked with “+.”)
CN1CCN(CC2CCN(c3c(F)cncc3NC(=O)c3c(N)nn4cc(C5(C#N)CC5)cnc34)CC2)CC1 [I-N-192, 2-amino-6-(1-cyanocyclopropyl)-N-(5-fluoro-4-(4-((4-methylpiperazin-1-yl)methyl)piperidin-1-yl)pyridin-3-yl)pyrazolo[1,5-a]pyrimidine-3-carboxamide] | +++ (Compounds with a Cisplatin sensitization value of <0.02 μM are marked with “+++.”)
CN1CCN(CC2CCN(c3c(F)cncc3NC(=O)c3c(N)nn4cc(F)cnc34)CC2)C(=O)C1 [I-N-193, 2-amino-6-fluoro-N-(5-fluoro-4-(4-((4-methyl-2-oxopiperazin-1-yl)methyl)piperidin-1-yl)pyridin-3-yl)pyrazolo[1,5-a]pyrimidine-3-carboxamide] | +++ (Compounds with a Cisplatin sensitization value of <0.02 μM are marked with “+++.”)
CN1CC(C(=O)N2CCN(c3c(F)cncc3NC(=O)c3c(N)nn4cc(F)cnc34)CC2)C1 [I-N-194] | +++ (Compounds with a Cisplatin sensitization value of <0.02 μM are marked with “+++.”)
Nc1nn2cc(F)cnc2c1C(=O)Nc1cnccc1N1CCN(S(=O)(=O)C2COC2)CC1 [I-N-195, 2-amino-6-fluoro-N-(4-(4-(oxetan-3-ylsulfonyl)piperazin-1-yl)pyridin-3-yl)pyrazolo[1,5-a]pyrimidine-3-carboxamide] | +++ (Compounds with a Cisplatin sensitization value of <0.02 μM are marked with “+++.”)
Nc1nn2cc(F)cnc2c1C(=O)Nc1cnccc1N1CCC(S(=O)(=O)N2CCN3CCC2CC3)CC1 [I-N-196, N-(4-(4-(1,4-diazabicyclo[3.2.2]nonan-4-ylsulfonyl)piperidin-1-yl)pyridin-3-yl)-2-amino-6-fluoropyrazolo[1,5-a]pyrimidine-3-carboxamide] | +++ (Compounds with a Cisplatin sensitization value of <0.02 μM are marked with “+++.”)
Nc1nn2cc(F)cnc2c1C(=O)Nc1cnccc1N1CCC(CN2CCC(F)(F)C2)CC1 [I-N-197, 2-amino-N-(4-(4-((3,3-difluoropyrrolidin-1-yl)methyl)piperidin-1-yl)pyridin-3-yl)-6-fluoropyrazolo[1,5-a]pyrimidine-3-carboxamide] | +++ (Compounds with a Cisplatin sensitization value of <0.02 μM are marked with “+++.”)
CN1CCC[C@H]1C(=O)N1CCN(c2ccncc2NC(=O)c2c(N)nn3cc(F)cnc23)CC1 [I-N-198, (S)-2-amino-6-fluoro-N-(4-(4-(1-methylpyrrolidine-2-carbonyl)piperazin-1-yl)pyridin-3-yl)pyrazolo[1,5-a]pyrimidine-3-carboxamide] | ++ (Compounds with a Cisplatin sensitization value >0.02 μM but <0.2 μM are marked with “++.”)
